Measured values taken from US7981890B2, “Phthalazinone derivatives” (AstraZeneca AB, priority 2007, dated 2011).
Converted amounts (≈) assume the structure as drawn.

Columns and labels:
HeLa cells = assay: Potentiation Factor (PF50), MMS growth inhibition, SRB assay; assay type: cell-based; details: with MMS, ratio of IC50 control / IC50 with PARP inhibitor; for mean PF50 at 30 nM: compound at 30 nM; for mean PF50 at 200 nM: compound at 200 nM
Procedure: The Potentiation Factor (PF50) for compounds is calculated as a ratio of the IC50 of control cell growth divided by the IC50 of cell growth+PARP inhibitor. Growth inhibition curves for both control and compound treated cells are in the presence of the alkylating agent methyl methanesulfonate (MMS). […] The concentrations of MMS were over a range from 0 to 10 μg/ml.
Cell growth was assessed using the sulforhodamine B (SRB) assay (Skehan, P., et al., (1990) New calorimetric cytotoxicity assay for anticancer-drug screening. J. Natl. Cancer Inst. 82, 1107-1112). 2,000 HeLa cells were seeded into each well of a flat-bottomed 96-well microtiter plate in a volume of 100 μl and incubated for 6 hours at 37° C. […] Cells were allowed to grow for a further 1 hour before the addition of MMS at a range of concentrations (typically 0, 1, 2, 3, 5, 7 and 10 μg/ml) to either untreated cells or PARP inhibitor treated cells. Cells treated with PARP inhibitor alone were used to assess the growth inhibition by the PARP inhibitor.
Cells were left for a further 16 hours before replacing the media and allowing the cells to grow for a further 72 hours at 37° C. The media was then removed and the cells fixed with 100 μl of ice cold 10% (w/v) trichloroacetic acid. The plates were incubated at 4° C. for 20 minutes and then washed four times with water. Each well of cells was then stained with 100 μl of 0.4% (w/v) SRB in 1% acetic acid for 20 minutes before washing four times with 1% acetic acid. Plates were then dried for 2 hours at room temperature. The dye from the stained cells was solubilized by the addition of 100 μl of 10 mM Tris Base into each well. Plates were gently shaken and left at room temperature for 30 minutes before measuring the optical density at 564 nm on a Microquant microtiter plate reader.

Solubility assay = assay type: physicochemical; details: thermodynamic from solid; water; 20 hours at room temperature
Procedure: A typical assay that may be used to assess the solubility of the compounds of the present invention is as follows. The solubility of the compound is assessed in water and phosphate-buffered saline (pbs) at pH 7.4. The samples are all allowed to equilibrate in the solvent (with shaking) for 20 hours at room temperature. After that period, the samples will be visually examined to determine the presence/absence of un-dissolved solid. The samples will be centrifuged or filtered as necessary to remove insoluble material, and the solution analysed to determine solubility of the DS, diluting both aqueous and DMSO samples to a similar concentration with DMSO. The area of the peak obtained by HPLC (using the diode array detector) from the sample will be compared to the area of the peak from the DMSO solution (diluted to the same concentration as the sample) and quantified taking into account the weight of sample taken for initial dissolution. The assumption is made that the sample will be completely soluble in DMSO at the levels used for testing.
Comparing the ratio of the peak areas, and knowing the concentration of the original samples, the solubility may be calculated.
About 1 mg of the sample is weighed accurately into a 4-ml glass vial and exactly 1.0 ml of water, aqueous buffer or DMSO, is added to it by pipette. Each vial is ultrasonicated for up to 2 minutes to assist solublisation of the solid. The samples are retained at room temperature for 20 hours, shaking on an orbital shaker. The vials are examined after this period to determine the presence/absence of un-dissolved solid. The samples should be centrifuged, or filtered through a 0.45 μm filter, to remove insoluble material if necessary, and the filtrate analysed to determine concentration of the compound in solution, after diluting all samples as appropriate with DMSO. 20 μl is injected onto the HPLC using the method shown below, injecting all samples in duplicate. The maximum solubility that can be determined using this method is nominally 1.0 mg/ml, the weight taken divided by the volume of solvent used. […]

[1] = tested on: BRCA2 deficient (VC8) cells; assay: VC8 assay, growth inhibition (SRB); assay type: cell-based, hamster; details: V-C8
Procedure: (§1) In order to assess the growth inhibitory action of compounds on BRCA2 deficient (VC8−hamster line) and BRAC2 complemented (VC8+BAC) cells the following assay was used to determine GI50 values.
500 VC8 cells or 200 VC8+BAC cells were seeded into each well of a flat-bottomed 96-well microtiter plate in a volume of 90 μl and incubated for 4-6 hours at 37° C. All compounds were diluted in media (Dulbecco's Modified Eagle's Medium (DMEM), 10% Fetal Bovine Serum, Penicillin/Sretptomycin/Glutamine) and added to the cells at final concentrations of between 0 and 300 nM.
Cells were left for a further 48 hours before replacing the media with fresh media (no compound) and allowing the cells to grow for a total of 120 hours at 37° C. The medium was then removed and the cells fixed with 50 μl of ice cold 10% (w/v) tricholoracetic acid. The plates were incubated at 4° C. for 30 minutes and then washed three times with water. Each well of cells was then stained with 50 μl of 0.4% (w/v) sulforhodamine B (SRB) in 1% acetic acid for 15 minutes before washing three times with 1% acetic acid. Plates were then dried for 2 hours at room temperature. The dye from the stained cells was solubilised by the addition of 100 μl of 10 mM Tris Base into each well. Plates were then shaken and the optical density at 564 nm was measured on a Microquant microtiter plate reader. […]

[2] = tested on: BRAC2 complemented (VC8+BAC) cells; assay: VC8 assay, growth inhibition (SRB), complemented cells; assay type: cell-based, hamster; details: BRCA2 complemented VC8+BAC cells
Procedure: as §1
500 VC8 cells or 200 VC8+BAC cells were seeded into each well of a flat-bottomed 96-well microtiter plate in a volume of 90 μl and incubated for 4-6 hours at 37° C. […]
Cells were left for a further 48 hours before replacing the media with fresh media (no compound) and allowing the cells to grow for a total of 120 hours at 37° C. The medium was then removed and the cells fixed with 50 μl of ice cold 10% (w/v) tricholoracetic acid. The plates were incubated at 4° C. for 30 minutes and then washed three times with water. Each well of cells was then stained with 50 μl of 0.4% (w/v) sulforhodamine B (SRB) in 1% acetic acid for 15 minutes before washing three times with 1% acetic acid. Plates were then dried for 2 hours at room temperature. The dye from the stained cells was solubilised by the addition of 100 μl of 10 mM Tris Base into each well. Plates were then shaken and the optical density at 564 nm was measured on a Microquant microtiter plate reader.
The GI50 is calculated as the μM concentration of compound required to inhibit 50% of cell growth.

SMILES	mean PF50 at 30 nM (HeLa cells)	mean PF50 at 200 nM (HeLa cells)	solubility at 20 h (Solubility assay) [µg/mL]	GI50 [1] [µM]	GI50 [2] [µM]
C[C@@H]1NC(=O)N(c2cc(Cc3n[nH]c(=O)c4c3CCCC4)ccc2F)C1=O (single isomer, unassigned) [Compound 13a]	25	–	–	–	–
CC1(C)NC(=O)N(c2cccc(Cc3n[nH]c(=O)c4c3CCCC4)c2)C1=O [Compound 15, 5,5-dimethyl-3-[3-[(4-oxo-5,6,7,8-tetrahydro-3H-phthalazin-1-yl)methyl]phenyl]imidazolidine-2,4-dione]	–	2	105 (≈ 287 µM)	–	–
CC1NC(=O)N(c2cccc(Cc3n[nH]c(=O)c4c3CCCC4)c2)C1=O (stereo not shown) [Compound 6, 5-Methyl-3-[3-(4-oxo-3,4,5,6,7,8-hexahydro-phthalazin-1-ylmethyl)-phenyl]-imidazolidine-2,4-dione]	–	20	500 (≈ 1420 µM)	–	–
C[C@H]1NC(=O)N(c2cc(Cc3n[nH]c(=O)c4c3CCCC4)ccc2F)C1=O (single isomer, unassigned) [Compound 13b]	9	–	–	–	–
CC1NC(=O)N(c2cc(Cc3n[nH]c(=O)c4c3CCCC4)ccc2F)C1=O (stereo not shown) [Compound 13, 3-[2-Fluoro-5-(4-oxo-3,4,5,6,7,8-hexahydro-phthalazin-1-ylmethyl)-phenyl]-5-methylimidazolidine-2,4-dione]	–	57	900 (≈ 2430 µM)	0.0105	29
